Experimental data published in paper PMC12190659, “A Near-Infrared Fluorescent Probe for Specific Imaging of Lymph Node Metastases in Ovarian Cancer via Active Targeting of the Gonadotropin-Releasing Hormone Receptor” (Biomolecules, 2025).
“Also recorded” adds a separate entry of the source.

Key:
[1] = tested on: lymphatic metastases in early-stage ovarian cancer; parameters: method as in PMID 38006759; conditions: compared with systematic lymphadenectomy; cited from earlier work
Source text: Lymph node metastases are commonly observed in advanced ovarian cancer and are associated with a poor survival rate. Systematic lymphadenectomy seems necessary to achieve complete tumor reduction. […] In a prospectively randomized, controlled trial of lymphadenectomy in patients with primary ovarian cancer (FIGO stage IIB through IV) with macroscopically complete resection and clinically negative lymph nodes (LION trial), systematic pelvic and p ...

[2] = tested on: folate receptor alpha; conditions: cited from earlier work
Source text: Real-time guidance provided by intraoperative fluorescence imaging helps improve the resection rate of tumors. Over the past two decades, researchers have attempted to develop tumor-specific fluorophores for intraoperatively detecting ovarian cancer. Pafolacianine (OTL38), a fluorescent tracer that targets folate receptor alpha, is the first FDA-approved agent for fluorescence-guided ovarian cancer surgery. In a phase III study (NCT03180307), additional cancer lesions were identified in 33% of patients with known or suspected ovarian cancer who were scheduled to undergo cytored ...

[3] = UV-visible absorption and fluorescence emission spectra; assay type: physicochemical; conditions: DMSO solution
Protocol: The probe GnRHa-PEG-Rh760 was synthesized as shown in the scheme in Figure 1A. The NIR fluorophore Rh760 and its derivatives Rh760-PAZ and Rh760-GA were synthesized as previously reported. All probes were synthesized by Guoping Pharmaceutical (Hefei, China). Briefly, the sequence of the GnRHa peptide (D-2-Nal-D-4-Cl-Phe-D-3-Pal-Ser-Tyr-D-Cit-Leu-Arg-Pro-D-Ala-NH2) was prepared via the standard Fmoc solid-phase peptide synthesis method. After peptide chain coupling, piperidine was added, and the mixture was allowed to react for 20 min to remove Fmoc. Then, Fmoc-PEG2000-COOH and Rh760 were added in sequence and allowed to react until the resin test was colorless. The resin was washed with methanol and then shaken for 2 h with cutting fluid. The resulting reaction mixture was precipitated with ice-cold ether, yielding a blue–green solid. PEG-Rh760 without GnRHa peptide modification was synthesized as the control. The final products were evaluated by mass spectrometry (MS). The UV–visible absorption spectra were measured with a LAMBDA 750 spectrometer (PerkinElmer, Waltham, USA), and the fluorescence emission spectra were measured with a QuantaMaster 40 fluorospectrometer in DMSO solution.

[4] = tested on: subcutaneous A2780 (GnRHR-positive) ovarian cancer; test: In vivo NIR fluorescence imaging, subcutaneous xenograft model; parameters: species or system BALB/c nude mice; conditions: 2.0 mg/kg, tail vein, n = 3
Protocol: (§1) Mouse models with subcutaneous xenografts: A total of 5 × 10^6 A2780 cells were subcutaneously injected into the flanks of the mice. The tumors were allowed to grow until their diameter reached approximately 5 mm before treatment.
(§2) The tumor-bearing mice were injected with GnRHa-PEG-Rh760 at a dose of 2.0 mg/kg body weight (n = 3). PEG-Rh760 was used as a non-targeted control probe. The probes were formulated using phosphate buffered saline (PBS) solutions with a pH of 7.4. For mice with subcutaneous xenografts and lymph node metastasis, the probe was administered via tail vein injection. For mice with peritoneal metastasis, the probe was injected intraperitoneally into the lower right abdominal region. In vivo NIR fluorescence imaging (Ex/Em = 740 nm/790 nm) was performed at different time points post-injection via the IVIS Lumina K Imaging system (PerkinElmer, Waltham, USA). Moreover, tumors, lymph nodes, and major organs were immediately dissected from sacrificed mice and imaged under NIR fluorescence. The fluorescence signals were quantified as the average radiant efficiency ([p/s/cm^2/sr]/[μW/cm^2]) via Living Image software (version 4.5, PerkinElmer, Waltham, USA).

[5] = tested on: subcutaneous A2780 ovarian cancer; test: Ex vivo fluorescence biodistribution, subcutaneous xenograft model; assay type: in vivo, BALB/c nude mice
Protocol: as §1, §2
Figure S1 Mass spectra of GnRHa-PEG-Rh760 (A) and PEG-Rh760 (B).
Figure S2 Biodistribution of GnRHa-PEG-Rh760 in mice bearing subcutaneous A2780 ovarian tumors. The mice were injected with GnRHa-PEG-Rh760 via the tail vein and monitored for 120 h. The fluorescence intensities of the ex vivo tumors and organs were measured (n=3). […]

[6] = tested on: peritoneal metastatic A2780-luciferase ovarian cancer; test: In vivo and ex vivo NIR fluorescence imaging, peritoneal metastasis model; parameters: species or system BALB/c nude mice; conditions: 2.0 mg/kg, intraperitoneal injection, n = 3
Protocol: Mouse models with peritoneal metastasis: A total of 1 × 10^7 A2780-luciferase cells were injected into the abdominal cavities of the mice. The tumors were allowed to grow for 2 weeks and monitored via bioluminescence imaging using the IVIS Lumina K Imaging system (PerkinElmer, Waltham, USA).
as §2, with “For mice with peritoneal metastasis, the probe was injected intraperitoneally into the lower right abdominal region.” left out
To verify the specificity of the NIR fluorescence imaging of GnRHa-PEG-Rh760, bioluminescence imaging of A2780-luciferase and ES-2-luciferase tumor-bearing mice was performed via the IVIS Lumina K Imaging system (PerkinElmer, Waltham, USA). […]

[7] = tested on: lymph node metastases of ES-2-luciferase ovarian cancer; test: In vivo and ex vivo NIR fluorescence imaging, lymph node metastasis model; parameters: species or system BALB/c nude mice; conditions: 2.0 mg/kg, tail vein
Protocol: Mouse models with lymph node metastasis: A total of 2 × 10^6 ES-2-luciferase cells were injected into the unilateral footpads of the mice. The lymph node metastases were monitored via bioluminescence imaging. Spontaneous metastases to popliteal (PO) and inguinal (IN) lymph nodes as well as occasional metastases to iliac (IL) and sciatic (SC) lymph nodes were observed after 2–3 weeks of primary tumor growth. The lymph node tissues were confirmed by histological examination and immunohistochemical staining for CK7.
as §2
To verify the specificity of the NIR fluorescence imaging of GnRHa-PEG-Rh760, bioluminescence imaging of A2780-luciferase and ES-2-luciferase tumor-bearing mice was performed via the IVIS Lumina K Imaging system (PerkinElmer, Waltham, USA). The mice were injected with 150 mg/kg body weight D-luciferin (YEASEN Biotech, Shanghai, China) and imaged at 15 min post-injection. Moreover, tumors, lymph nodes, and major organs were immediately dissected from sacrificed mice and imaged. Bioluminescence signals were quantified as the total flux (p/s) via Living Image software (version 4.5, PerkinElmer, Waltham, USA).

[8] = target: T1, GnRHR (Homo sapiens, UniProt P30968); test: Confocal fluorescence microscopy of frozen tissue sections; assay type: in vivo, BALB/c nude mice
T1 construct: mouse model bearing subcutaneous A2780 (GnRHR-positive) ovarian cancer; endogenous in cells; host or cells: A2780 and ES-2 human ovarian cancer cells grown as xenografts or lymph node metastases in BALB/c nude mice; frozen tissue sections
T1 sequence (P30968 1-328): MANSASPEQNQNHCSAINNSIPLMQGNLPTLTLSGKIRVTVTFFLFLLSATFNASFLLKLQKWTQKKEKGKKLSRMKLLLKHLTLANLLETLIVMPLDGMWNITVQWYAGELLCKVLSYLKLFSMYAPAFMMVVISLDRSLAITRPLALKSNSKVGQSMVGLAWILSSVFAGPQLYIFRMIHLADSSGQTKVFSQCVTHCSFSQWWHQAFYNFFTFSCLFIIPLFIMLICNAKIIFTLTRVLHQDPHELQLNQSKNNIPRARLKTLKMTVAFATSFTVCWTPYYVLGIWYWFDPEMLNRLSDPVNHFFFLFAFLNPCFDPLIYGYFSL
Source text: To examine the binding of probes to ovarian cancer tissues, tumors, lymph nodes and skeletal muscle were obtained from sacrificed mice and then embedded in frozen section embedding medium. The frozen tissues were sectioned, fixed and mounted. Nuclei were labeled with DAPI. Fluorescence images were captured via confocal fluorescence microscopy (TCS SP5, Leica, Wetzlar, Germany).

[9] = In vivo safety evaluation; parameters: species or system mice; conditions: 2.0 mg/kg, tail vein, n = 3
Protocol: The mice were injected with GnRHa-PEG-Rh760 at a dose of 2.0 mg/kg body weight via the tail vein (n = 3). PEG-Rh760 and vehicle were used as controls. The body weights of the mice were continuously monitored. The mice were sacrificed after 6 days. Routine blood tests were conducted to assess red blood cells (RBCs), white blood cells (WBCs), and platelets (PLTs). Blood biochemistry tests were conducted to assess alanine transaminase (ALT), aspartate transaminase (AST), blood urea nitrogen (BUN), and creatinine (CREA) levels. Tissue sections from organs, including the heart, lung, liver, spleen, kidney, and muscle, were stained with hematoxylin and eosin (H&E) for histopathological analysis.

CC1(C)C(/C=C/C=C/C=C/C=C2\N(CCCCS(=O)(=O)O)c3ccc4ccccc4c3C2(C)C)=[N+](CCCCS(=O)(=O)[O-])c2ccc3ccccc3c21 [indocyanine green]
detection rate of sentinel lymph node mapping [1]: low detection rate

CC1(C)C(/C=C/C2=C(Oc3ccc(C[C@H](NC(=O)c4ccc(NCc5cnc6nc(N)[nH]c(=O)c6n5)cc4)C(=O)[O-])cc3)C(=C/C=C3\N(CCCCS(=O)(=O)[O-])c4ccc(S(=O)(=O)[O-])cc4C3(C)C)/CCC2)=[N+](CCCCS(=O)(=O)[O-])c2ccc(S(=O)(=O)[O-])cc21.[H+].[H+].[H+].[H+] [pafolacianine, Pafolacianine]
false-positive lymph nodes ([2]; phase I to III studies): false-positive lymph nodes were also observed | patients in whom additional cancer lesions were identified ([2]; phase III study NCT03180307, versus white light assessment and palpation): 33%

D-2-Nal-D-4-Cl-Phe-D-3-Pal-Ser-Tyr-D-Cit-Leu-Arg-Pro-D-Ala-NH2 [GnRHa-PEG-Rh760, GnRHR-targeted NIR fluorescent probe: GnRH analog peptide conjugated with Rh760 fluorophore and polyethylene glycol (PEG)]
maximum absorption peak [3]: 780 nm | maximum emission peak [3]: 805 nm | NIR fluorescence in subcutaneous tumors ([4]; Ex/Em 740/790 nm): High fluorescence intensity | duration of stronger fluorescence signals in tumors post-injection [4]: up to 72 h | NIR fluorescence in normal ovarian tissues ([5]; ex vivo): weak NIR fluorescence | biodistribution (organs of accumulation) ([5]; ex vivo fluorescence of tumors and organs, 2.0 mg/kg, tail vein, monitored for 120 h, n = 3): mainly accumulated in the tumor and liver tissues; also recorded: predominant accumulation in the tumor and liver, followed by the kidneys | clearance of the probe ([5]; ex vivo fluorescence of tumors and organs, 2.0 mg/kg, tail vein, n = 3): gradually cleared at 96 h post-injection | tumor-to-background (skeletal muscle) fluorescence ratio ([5]; ex vivo, 2.0 mg/kg, tail vein, n = 3): high ratio of tumor-to-background | NIR fluorescence signals in peritoneal metastases [6]: high fluorescent signals | NIR fluorescence in metastatic lymph nodes ([7]; n = 3): well identified and detected by NIR fluorescence | NIR fluorescence in normal lymph nodes ([7]; n = 3): no NIR fluorescence signals were detected | average fluorescence intensity in metastatic versus normal lymph nodes ([7]; n = 3, p < 0.05): significantly greater | binding in tumor sections (versus skeletal muscle) ([8]; frozen sections from subcutaneous A2780 tumor-bearing mice injected with the probe): specific binding | binding in metastatic lymph node sections ([8]; frozen sections of lymph nodes from ES-2-luciferase model): specific binding | body weight change versus control group ([9]; 6 days): No significant body weight loss | hematologic analysis: RBC, WBC, PLT, ALT, AST, BUN, CREA levels ([9]; after 6 days): no significant changes | histopathology (H&E) of heart, lung, liver, spleen, kidney, muscle ([9]; after 6 days): No notable tissue injury
